# Experimental data published in PubChem BioAssay (NCI).
#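 1) Cells in 96-well plates. 2) Compound, 48 h, 5 concentrations. 3) Linear interpolation between surrounding doses. 4) Unreached endpoint = highest concentration. At the GI50, growth is halved. TGI: total growth inhibition.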
# Experiments:
# Experiment in all cases: NCI-60 cell line screen, 48 h
# SF-539 CNS = test system: SF-539 CNS
# NCI-H23 lung = test system: NCI-H23 lung
# HOP-62 NSCLC = test system: HOP-62 NSCLC
# UACC-62 melanoma = test system: UACC-62 melanoma
# OVCAR-8 ovarian = test system: OVCAR-8 ovarian
# OVCAR-3 ovarian = test system: OVCAR-3 ovarian
# LXFL 529 NSCLC = test system: LXFL 529 NSCLC
# A549 NSCLC = test system: A549 NSCLC
# OVCAR-5 ovarian = test system: OVCAR-5 ovarian
# MOLT-4 leukemia = test system: MOLT-4 leukemia
# HCT-15 colon = test system: HCT-15 colon
# HCC-2998 colon = test system: HCC-2998 colon
# SK-MEL-5 melanoma = test system: SK-MEL-5 melanoma
# SN12C renal = test system: SN12C renal
# SK-MEL-28 melanoma = test system: SK-MEL-28 melanoma
# HT29 colon = test system: HT29 colon
# NCI-H522 lung = test system: NCI-H522 lung
# ACHN renal = test system: ACHN renal
# SK-MEL-2 melanoma = test system: SK-MEL-2 melanoma
# M14 melanoma = test system: M14 melanoma
# SNB-19 CNS = test system: SNB-19 CNS
# DMS 114 small cell lung = test system: DMS 114 small cell lung
# OVCAR-4 ovarian = test system: OVCAR-4 ovarian
# MALME-3M melanoma = test system: MALME-3M melanoma
# COLO 205 colon = test system: COLO 205 colon
# SF-268 CNS = test system: SF-268 CNS
compound,measurement,setting,value
C[CH2][Sn]([Cl])([CH2]C)[CH2]C,GI50,SF-539 CNS,1010 nM
same,TGI,SF-539 CNS,2910 nM
same,GI50,NCI-H23 lung,556 nM
same,TGI,NCI-H23 lung,4840 nM
same,GI50,HOP-62 NSCLC,1040 nM
same,TGI,HOP-62 NSCLC,4140 nM
same,GI50,UACC-62 melanoma,515 nM
same,TGI,UACC-62 melanoma,11500 nM
same,GI50,OVCAR-8 ovarian,1690 nM
same,TGI,OVCAR-8 ovarian,4350 nM
same,GI50,OVCAR-3 ovarian,1340 nM
same,TGI,OVCAR-3 ovarian,6610 nM
same,GI50,LXFL 529 NSCLC,469 nM
same,TGI,LXFL 529 NSCLC,3270 nM
same,GI50,A549 NSCLC,1180 nM
same,TGI,A549 NSCLC,5040 nM
same,GI50,OVCAR-5 ovarian,3330 nM
same,TGI,OVCAR-5 ovarian,8330 nM
same,GI50,MOLT-4 leukemia,369 nM
same,TGI,MOLT-4 leukemia,2960 nM
same,GI50,HCT-15 colon,637 nM
same,TGI,HCT-15 colon,5790 nM
same,GI50,HCC-2998 colon,354 nM
same,TGI,HCC-2998 colon,1660 nM
same,GI50,SK-MEL-5 melanoma,761 nM
same,TGI,SK-MEL-5 melanoma,2260 nM
same,GI50,SN12C renal,841 nM
same,TGI,SN12C renal,3470 nM
same,GI50,SK-MEL-28 melanoma,1670 nM
same,TGI,SK-MEL-28 melanoma,11600 nM
same,GI50,HT29 colon,439 nM
same,TGI,HT29 colon,2620 nM
same,GI50,NCI-H522 lung,705 nM
same,TGI,NCI-H522 lung,3150 nM
same,GI50,ACHN renal,1460 nM
same,TGI,ACHN renal,8270 nM
same,GI50,SK-MEL-2 melanoma,606 nM
same,TGI,SK-MEL-2 melanoma,4480 nM
same,GI50,M14 melanoma,1270 nM
same,TGI,M14 melanoma,5460 nM
same,GI50,SNB-19 CNS,1970 nM
same,TGI,SNB-19 CNS,10600 nM
same,GI50,DMS 114 small cell lung,968 nM
same,TGI,DMS 114 small cell lung,4700 nM
same,GI50,OVCAR-4 ovarian,1410 nM
same,TGI,OVCAR-4 ovarian,11000 nM
same,GI50,MALME-3M melanoma,572 nM
same,TGI,MALME-3M melanoma,3770 nM
same,GI50,COLO 205 colon,1480 nM
same,TGI,COLO 205 colon,3800 nM
same,GI50,SF-268 CNS,1590 nM
same,TGI,SF-268 CNS,7940 nM
